# Source: article PMC9866218, “Characterization and Chemical Synthesis of Cm39 (α-KTx 4.8): A Scorpion Toxin That Inhibits Voltage-Gated K^+ Channel KV1.2 and Small- and Intermediate-Conductance Ca^2+-Activated K^+ Channels KCa2.2 and KCa3.1” (Toxins, 2023)
# Bridge positions count the residues as written; N and C are the ends. Ends that are not written are not given here.
# Tests used:
# hKV1.6 = format: cell-based, human
# From the text: (§1) We, therefore, aimed at testing the pharmacological activity of sCm39 on a battery of various potassium and sodium ion channels. Among the tested channels were six members of human voltage-gated K^+ (hKV) channels from Shaker family, hKV1.1-hKV1.6 (Figure 3A–F) and three members of Ca^2+-activated potassium channel; hKCa2.2 (SK2, Figure 3I), the small-conductance Ca^2+-activated channel; hKCa3.1 (IKCa1, SK4. Figure 3J), the intermediate-conductance Ca^2+-activated channel expressed in T lymphocytes; and mKCa1.1 (BK, Slo1, MaxiK, Figure 3H), the large-conductance voltage- and Ca^2+-activated channel of mice. In addition, we also screened the effect of Cm39 on hKV11.1 (hERG1, Figure 3G), a voltage-gated cardiac K^+ channel, and two human voltage-gated sodium (hNaV) channels, hNaV1.4 (Figure 3K) and hNaV1.5 (Figure 3L), expressed in skeletal and cardiac muscles, respectively. These ion channels were heterologously expressed in the CHO or HEK cell lines except for KV1.3. Human peripheral T lymphocytes. They were stimulated with Phytohemagglutinin A (PHA) to increase the KV1.3 channel expression, and Ca^2+-free intracellular solution was used to avoid KCa3.1 channel activation. Appropriate depolarization protocols were used to record ionic currents in voltage-clamped cells (see Figure 3 insets and Material and Methods for details). Freshly dissolved sCm39 in extracellular solution was applied at 1 µM concentration on the cell using a custom-built micro-perfusion system at ~200 µL/min flow rate.
# (§2) Chinese hamster ovary (CHO) cells (gift from Yosef Yarden, Weizmann Institute of Science, Rehovot, Israel) were maintained by culturing in Dulbecco’s modified Eagle medium (DMEM, Gibco) supplemented with 2 mM L-glutamine, 10% FBS, 100 µg/mL streptomycin and 100 U/mL penicillin-g (Sigma-Aldrich) at a density of 0. 5−1×10^6 cells per mL in a humidified incubator at 37 °C and 5% CO2. Cells were passaged 3 times in a week following a 2–5 min incubation in 0.05% trypsin-EDTA solution at 37 °C. Cultures were used up to passage number 20. PCR-based tests were routinely used to detect mycoplasma infection, only mycoplasma-free cultures were used for experiments.
# (§3) Those plasmids which lack a fluorescent tag were co-transfected with a plasmid encoding GFP. Transfections were performed at a GFP:channel DNA molar ratio of 1:10 using the Lipofectamine 2000 kit (Invitrogen) according to the manufacturer’s protocol. […] Generally, currents were recorded 24 to 48 h post transfection.
# (§4) For the measurement of KV1.x, mKCa1.1 and NaV1.x currents the extracellular solution was composed of (in mM) 145 NaCl, 5 KCl, 2.5 CaCl2, 1 MgCl2, 10 HEPES and 5.5 glucose, pH 7.35. In the HK-150 and Na^+-free bath solution bath all Na^+ was substituted by K^+ or Choline-Cl, respectively, other ingredients remained unchanged. In the various TEA^+-containing solutions, Na^+ was substituted by tetraethylammonium-Cl in equimolar concentration (Figure 3). The bath solution for KCa2.2 and KCa3.1 consisted of (in mM) 145 L-Aspartic Na^+ salt, 5 KCl, 2.5 CaCl2, 1 MgCl2, 5.5 glucose and 10 HEPES, pH 7.4 and for KV11.1 (in mM) 140 Choline-Cl, 5 KCl, 2 MgCl2, 2 CaCl2, 10 HEPES, 20 glucose and 0.1 CdCl2, pH 7.35. The osmolarity of bath solutions was ranging between 302 to 308 mOsm/L. A total of 0.1 mg/mL bovine serum albumin (BSA, Sigma-Aldrich, Budapest, Hungary) was added to all the bath solutions before the patch-clamp assay to avoid toxin adsorption to the plastic surfaces of the perfusion system. Internal or pipette solution for recording KV1.x and mKCa1.1 currents consisted of (in mM) 140 KF, 2 MgCl2, 1 CaCl2, 11 EGTA and 10 HEPES, pH 7.22.
# hKV1.1 = format: cell-based, human
# From the text: as §1, §2, §3, §4
# hKV1.3 = format: cell-based, human
# From the text: as §1
# For the measurement of KV1.x, mKCa1.1 and NaV1.x currents the extracellular solution was composed of (in mM) 145 NaCl, 5 KCl, 2.5 CaCl2, 1 MgCl2, 10 HEPES and 5.5 glucose, pH 7.35. In the HK-150 and Na^+-free bath solution bath all Na^+ was substituted by K^+ or Choline-Cl, respectively, other ingredients remained unchanged. […]
# Whole-cell currents were recorded in voltage-clamped cells following standard protocols by using a Multiclamp 700B amplifier connected to a computer with Axon Digidata1440 digitizer and for data acquisition, Clampex 10.7 software was used (Molecular Devices).
# mKCa1.1 = format: cell-based, mice
# From the text: as §1, with “rate. […]” for “rate.”
# Whole-cell currents were recorded in voltage-clamped cells following standard protocols by using a Multiclamp 700B amplifier connected to a computer with Axon Digidata1440 digitizer and for data acquisition, Clampex 10.7 software was used (Molecular Devices). […]
# KV1.3 = conditions: cited from earlier work
# From the text: Most of the peptides in subfamily 4 are very similar (percentage identity ranging from 78 to 97%) and share common pharmacological targets, including KV1.3, KV1.2 and KCa channels. […] Not all subfamily 4 toxins have been tested on the KV1.3 channel, but for those that were te ... || Generally, scorpion toxins interact at two different regions of KV channels to modify their function. Typical functional dyad (lysine and tyrosine) bearing toxins bind to the extracellular vestibule in such a way that lysine goes deep into selectivity filter, thereby plugging the pore of the channel. Other toxins interact with the voltage-sensing domain (VSD) causing the significant change in gating of the channel.
# hKV1.2 = molecular target: T1, hKV1.2 (Homo sapiens, UniProt P16389); test: Whole-cell patch-clamp, block of KV1.2 current; format: cell-based; conditions: fully reversible blocker as positive control
# T1 construct: GFP (vector pCMV6-AC-GFP); host or cells: CHO cells, transient transfection
# From the text: as §1
# For comprehensive characterization of Cm39 activity on KV1.2, we determined the concentration–response of current inhibition by Cm39, the kinetic parameters of its binding and assessed the effect on voltage dependence of steady-state activation. The whole-cell KV1.2 currents were recorded in CHO cells using depolarization pulses to +50mV from −120mV holding potential (Vh) every 15 s. Since the activation kinetics of KV1.2 are highly variable, the duration of pulses was set on a cell-by-cell basis between 15–300 ms to allocate sufficient time for reaching maximum currents at the test potentials. […] The remaining current fractions (RCF = I/I0, where I0 is the peak current in the absence of the toxin, and I is the peak current at equilibrium block in the presence of sCm39 at a given concentration) were calculated and plotted as a function of toxin concentration.
# Single-exponential decay functions were fitted to the normalized peak currents in the presence of each sCm39 concentration (Figure 4C, data points in red shades) to determine the time constant for the onset of block (τon, wash-in or association time constant). The dissociation time constant for the relief from block (τoff, wash-out time constant) was obtained by fitting a single-exponential rising function to the normalized peak currents in the wash-out procedure (Figure 4C, data point in black empty circles). Assuming a simple bimolecular interaction between the toxin and the channel, time constants for the onset and recovery from the block can be stated as follows:(1) τon=1/kon×[toxin]+koff , τoff=1/koff where kon represents the second-order association rate constant, koff indicates the first-order dissociation rate constant and [toxin] is the sCm39 concentration. […] The second-order rate constant of association (kon) was determined by fitting the 1/τon data points using linear regression with koff as the y-intercept.
# KCa3.1 channel = conditions: cited from earlier work
# From the text: (§5) Most of the peptides in subfamily 4 are very similar (percentage identity ranging from 78 to 97%) and share common pharmacological targets, including KV1.3, KV1.2 and KCa channels. […] Not all subfamily 4 toxins have been tested on the KV1.3 channel, but for those that were te ... || To date, a number of scorpion-derived peptide toxins are known to block K^+ channels with great affinity. However, these native toxins target more than one channel which compromises their therapeutic use in the management of channelopathies.
# [1] = system: several KV1.x channel subtypes and Ca^2+-activated channels; conditions: high affinity; cited from earlier work
# From the text: To date, a number of scorpion-derived peptide toxins are known to block K^+ channels with great affinity. However, these native toxins target more than one channel which compromises their therapeutic use in the management of channelopathies.
# KV1.2 = conditions: cited from earlier work
# From the text: Most of the peptides in subfamily 4 are very similar (percentage identity ranging from 78 to 97%) and share common pharmacological targets, including KV1.3, KV1.2 and KCa channels. […] Not all subfamily 4 toxins have been tested on the KV1.3 channel, but for those that were te ...
# KCa2.2 channel = conditions: cited from earlier work
# From the text: as §5
# T1 sequence (P16389 whole entry): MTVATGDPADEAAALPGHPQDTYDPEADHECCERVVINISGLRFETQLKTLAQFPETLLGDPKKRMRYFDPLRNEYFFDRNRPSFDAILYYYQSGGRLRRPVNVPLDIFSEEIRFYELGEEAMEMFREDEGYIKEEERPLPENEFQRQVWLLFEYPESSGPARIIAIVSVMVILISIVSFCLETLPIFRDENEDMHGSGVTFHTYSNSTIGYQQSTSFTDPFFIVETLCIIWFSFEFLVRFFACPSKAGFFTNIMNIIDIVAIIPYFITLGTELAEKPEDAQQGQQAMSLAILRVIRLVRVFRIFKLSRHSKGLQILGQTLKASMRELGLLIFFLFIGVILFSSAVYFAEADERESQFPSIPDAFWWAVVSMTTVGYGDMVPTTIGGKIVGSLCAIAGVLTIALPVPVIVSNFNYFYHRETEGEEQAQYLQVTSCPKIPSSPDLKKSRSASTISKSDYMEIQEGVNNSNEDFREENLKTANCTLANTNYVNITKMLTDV
compound,measurement,setting,value
"CC[N+](CC)(CC)CC [TEA^+, tetraethylammonium chloride, reference compound]",current response to positive control,hKV1.6,decrease in the current
same,current response to positive control,hKV1.1,decrease in the current
same,current response to positive control,hKV1.3,decrease in the current
same,current response to positive control,mKCa1.1,decrease in the current
ChTx,effect on KV1.3,KV1.3,shows effects
same,current response to positive control,hKV1.2,decrease in the current
same,Kd,KCa3.1 channel,5 nM
same,affinity range,[1],picomolar to nanomolar
same,effect on KV1.2,KV1.2,shows effects
"Leiurotoxin I: isolated from Leiurus quinquestriatus hebraeus (AFCNLRMCQLSCRSLGLLGKCIGDKCECVKH; UniProt P16341 1-31, looked up)",inhibition of KCa2.x subtypes,KCa2.2 channel; small-conductance Ca^2+-activated potassium channel KCa2.x subtypes,potent inhibitor
"MgTx (TIINVKCTSPKQCLPPCKAQFGQSAGAKCMNGKCKCYPH; UniProt P40755 1-39, looked up)",affinity range,[1],picomolar to nanomolar
"apamin (CNCKAPETALCARRCQQH-NH2; disulfide 1-11, 3-15; ends not checked; UniProt P01500 28-45, looked up)","blocking effect on KCa2 (small-conductance K^+ channel, SK)",KCa2.2 channel,picomolar range
